Assay results reported in PMC11833358 (Food Chemistry: X, 2025).
Several values for one entry are separate records, joined by “and”; a condition that tells them apart may be missing. Equal values may be shown once. Marks after values point to notes of the source that are not given here.

Key:
in vitro = details: human, Caco-2
Caco-2 cell monolayer [1] = details: for ER (efflux ratio, Papp(BL→AP)/Papp(AP→BL)) / Papp (AP→BL) / Papp (BL→AP): constituent of DS 100 μg/mL, 180 min; for Papp (AP→BL) / Papp (BL→AP): from UPLC-ESI-MS/MS peak areas
Caco-2 cell monolayer [2] = test: Phenol red flux and apparent permeability across Caco-2 cell monolayer; assay type: in vitro ADME, human; details: AP→BL, 60 min, 5 μg/mL phenol red
Caco-2 cell monolayer [3] = details: literature report; ref Chen et al., 2021; cited from earlier work

| Compound | Papp A→B at 180 min, 100 μg/mL (in vitro) [×10⁻⁶ cm/s] | Papp B→A at 180 min, 100 μg/mL (in vitro) [×10⁻⁶ cm/s] | Papp (AP→BL) (Caco-2 cell monolayer [1]) | other results |
| --- | --- | --- | --- | --- |
| O=c1c(O[C@@H]2O[C@H](CO)[C@@H](O)[C@H](O)[C@H]2O)c(-c2ccc(O)cc2)oc2cc(O)cc(O)c12 [Astragalin] | 0.78 | 4.26 |  |  |
| COc1cc([C@@H]2Oc3c(OC)cc(CCCO)cc3[C@H]2CO)ccc1O [Dihydrodehydrodiconiferyl alcohol] | 3.24 | 18.3 |  |  |
| COc1cc(-c2oc3cc(O)c(OC)c(O)c3c(=O)c2OC)cc(OC)c1O [5,7,4′-Trihydroxy-3,6,3′,5′-tetramethoxyflavone] | 3.24 | 23.1 |  | efflux ratio at 180 min, 100 μg/mL (in vitro): 7.13; Differential metabolite TSA vs. TSB (Caco-2 cell monolayer [1]; VIP ≥ 1, p < 0.05, fold change >2.0 or < 0.5): upregulated |
| O=S1(=O)OC(c2ccc(O)cc2)(c2ccc(O)cc2)c2ccccc21 [Phenol red] |  |  |  | Phenol red flux QBL (Caco-2 cell monolayer [2]; cell culture time 3 days): 4.18 ± 0.43^a μg; Phenol red flux QBL (Caco-2 cell monolayer [2]; cell culture time 6 days): 1.94 ± 0.70^b μg; Phenol red flux QBL (Caco-2 cell monolayer [2]; cell culture time 9 days): 1.36 ± 0.44^bc μg; Phenol red flux QBL (Caco-2 cell monolayer [2]; cell culture time 12 days): 0.88 ± 0.15^cd μg; Phenol red flux QBL (Caco-2 cell monolayer [2]; cell culture time 15 days): 0.49 ± 0.21 μg and 0.49 ± 0.21^d μg; Phenol red flux QBL (Caco-2 cell monolayer [2]; cell culture time 18 days): 0.40 ± 0.09^d μg; Phenol red flux QBL (Caco-2 cell monolayer [2]; cell culture time 21 days): 0.37 ± 0.07^d μg |
| COc1cc(C[C@H]2C(=O)OC[C@@H]2Cc2ccc(OC)c(OC)c2)ccc1O [Arctigenin] | 5.37 | 25.2 |  | efflux ratio at 180 min, 100 μg/mL (in vitro): 4.69 |
| 5,2′-Dihydroxy-7,8-dimethoxyflavone glycoside |  |  | 3.05 10^−6 cm/s | ER (efflux ratio, Papp(BL→AP)/Papp(AP→BL)) (Caco-2 cell monolayer [1]): 2.29; Papp (BL→AP) (Caco-2 cell monolayer [1]): 6.97 10^−6 cm/s |
| COc1ccc2c(c1)OCC(=Cc1cccnc1)C2=O [7-Methoxy-3-[1-(3-pyridyl)methylidene]-4-chromanone] |  | 2.81 | 20.87 10^−6 cm/s | efflux ratio at 180 min, 100 μg/mL (in vitro): 0.13 |
| O=c1c(-c2ccc(O[C@@H]3O[C@H](CO)[C@@H](O)[C@H](O)[C@H]3O)cc2)coc2cc(O)cc(O)c12 [Sophoricoside] | 1.63 | 9.89 |  |  |
| COc1ccc(-c2cc(=O)c3c(O)c(OC)c(OC)cc3o2)cc1O [Eupatorin] | 2.17 | 17.3 |  |  |
| CC(=O)Oc1ccccc1 [Phenyl acetate] | 8.89 | 19.4 |  |  |
| COc1cc(/C=C/C(=O)O)ccc1O [Ferulic acid] |  |  | 17.37 10^−6 cm/s | Mode of translocation (Caco-2 cell monolayer [3]): active transport; ER (efflux ratio, Papp(BL→AP)/Papp(AP→BL)) (Caco-2 cell monolayer [1]): 2.25; Papp (BL→AP) (Caco-2 cell monolayer [1]): 39.16 10^−6 cm/s |
| COc1ccc(/C=C/C(=O)O)cc1O [Isoferulic acid] |  | 49.5 | 24.51 10^−6 cm/s |  |
| COc1cc(O)c(CC=C(C)C)c2c1C(=O)CC(c1ccc(O)cc1)O2 (stereo not drawn) [Isoxanthohumol] | 3.5 | 23.2 |  | Mode of translocation (Caco-2 cell monolayer [3]): active transport |
